Where “and” joins values, the source holds several entries; their conditions need not be identical. Identical values can stand only once.
Key:
Assay type in all cases: in vivo
[1] = system: hypercholesterolemic C57B⅙ mice; assay: Serum total cholesterol in hypercholesterolemic C57B⅙ mice on Paigen's cocoa butter diet; conditions: 1.6 mg/kg/day
Procedure: Three- to four-week old C57B⅙ male mice (Taconic, Germantown, N.Y., USA) were kept in micro-isolator cages on a 12-hour day/night cycle and fed the Paigen's cocoa butter diet (15.8% fat, 1.25% cholesterol, and 0.5% sodium cholate) (Harlan Teklad, Madison, Wis., USA) for two weeks prior to initiation of lipid lowering therapy. Paigen's diet is described in Nishina et.al., 1993, J. Lipid Res. 34: 1413-1422.
(§1) Animals were treated with test compounds by intraperitoneal injection daily for 7 days. A range of doses was administered. Control animals received vehicle alone. The effect of quinazoline derivatives on total cholesterol, LDL, HDL, liver enzymes, and glucose was analyzed. The mice tissues were also examined histologically.
(§2) Serum total cholesterol was measured enzymatically using the cholesterol kit from Sigma Chemical Co. (St. Louis, Mo., USA). For liver tissue lipid measurements, lipids were extracted from homogenized hepatic tissues using the method of Bligh and Dyer (Bligh, et al., Can. J. Biochem. Phys. 1959, 37:911-917). One gram of liver tissue was homogenized in 1 ml of distilled water and extracted with 4 ml of chloroform/methanol (1:1, v/v). The chloroform phase containing the lipids was evaporated under a stream of nitrogen, the lipids dissolved in 100 μL of isopropanol, and subjected to cholesterol determination as described above. Triglyceride (TG) contents were determined using the TG kit from Sigma Chemical Co.
A high cholesterol and high fat diet was used to induce hypercholesterolemia in C57B⅙mice, using the methods described by Paigen, et al. (Nishina, et al., 1993, J. Lipid Res. 34:1413-1422) and as described for Example 1.

apo e−/− mice [2] = assay: Serum total cholesterol in apolipoprotein E deficient mice; conditions: for Mean serum total cholesterol: apo e−/− mice, 8 mg/kg/day, one week
Procedure: (§3) Three- to four-week old apolipoprotein E deficient (apo E^−/−) mice were the progeny of breeding pairs of apo E knockout (apo EKO) mice obtained from Jackson Labs. (Bar Harbor, Me., USA). Mice were fed either regular rodent chow (5% fat and 0% cholesterol) (Teklad-LM 485, Harlan Teklad, Madison, Wis., USA), the Paigen's cocoa butter diet, or the Western diet (21.22% fat and 0.2% cholesterol) (Harlan Teklad, Madison, Wis., USA) for two weeks prior to treatment.
as §1, §2
(§4) On regular rodent chow, the serum total cholesterol level of apo e^−/− mice was 836±57 mg/dL (n=47). After one week therapy with 8 mg/kg/day WHI-P164 (n=12), the mean serum total cholesterol level was reduced to 551±29 mg/dL (p=0.02).
(§5) When challenged with a cholesterol-rich diet, these animals developed frank hypercholesterolemia due to delayed clearance of intestinal chylomicrons which shuttle the dietary cholesterol from the intestine to the liver. In the present study, all of the 46 ApoE-deficient mice that were fed Western diet (14) became severely hypercholesterolemic with a mean serum total cholesterol level of 1491±59 mg/dL. One week WHI-P164 therapy reduced the mean serum total cholesterol level of hypercholesterolemic apo e^−/− mice to 1194±84 mg/dL (p=O.006) at a dose level of 8 mg/kg/day (n=19) and to 876±57 mg/dL (p<0.0001) at a dose level of 40 mg/kg/day (n=17) (Table 3).

apo e−/− mice [3] = assay: Serum lipoprotein profile (VLDL-C, HDL-C) by FPLC in apo e−/− mice; conditions: for HDL-C / VLDL-C: apo e−/− mice, one week
Procedure: as §3, §1
Serum cholesterol profiles were examined by Fast Protein Liquid Chromatography (FPLC) using 100 μl of serum per run. The serum was passed over two Superose™ 6 HR 10/30 connected in tandem equilibrated in phosphate buffered saline (PBS), using the FPLC system from Pharmacia Biotech (Piscataway, N.J., USA) consisting of a controller LCC-501 plus connected to a UV detector (UV-MII), two P500 pumps, and a Frac-100 fraction collector. The FPLC was remotely controlled and operated by the FPLC director program operated on an IBM computer. The system was operated at a flow rate of 0.5 ml/minute and fractions were collected at 0.5 ml/fraction. Cholesterol concentration of each fraction was determined as described above and plotted against the fraction numbers to obtain the serum cholesterol profile.
To determine the serum concentrations of LDL/β-VLDL and HDL, the sums of the LDL/β-VLDL peak (fractions 29-35) and the HDL peak (fractions 53-63) were divided by 0.1. To obtain the IC50 and the minimum β-VLDL and HDL concentrations, the concentrations of β-VLDL and HDL were plotted against the dosage. Best fitted exponential decay curves were obtained using the equation: Concentration of HDL or LDL/β-VLDL=Aexp(−BX)+E, where A+E equals the concentration of HDL or LDL/β-VLDL at the dosage of 0 μg/day and E equals the mathematical minimum concentration of HDL or β-VLDL, and B equals 0.69/IC50. Best fitted curves were obtained using the Graphpad Inplot program, Graphpad Software, San Diego, Calif., USA.
as §4, §5

[4] = hypercholesterolemic apo e−/− mice

COc1cc2ncnc(C(=O)c3cccc(Br)c3)c2cc1OC [WHI-P164, 4-(3′-bromobenzoyl)-6,7-dimethoxyquinazoline]
Serum total cholesterol ([1]; apo e+/+ C57B1/6 mice, cocoa butter diet two weeks, then drug 1 week at 1.6 mg/kg/day i.p.): 348.6 ± 27.6 mg/dL and 349 ± 28 mg/dL
Reduction in mean serum total cholesterol ([1]; hypercholesterolemic C57B⅙ mice, one week, versus untreated): 23%
Serum total cholesterol (apo e−/− mice [2]; apo e−/− (C57B1/6) mice, Western diet two weeks, then drug 1 week at 40 mg/kg/day, 40 mg/kg/day): 876 ± 57 mg/dL
Mean serum total cholesterol (apo e−/− mice [2]; Western diet): 1194 ± 84 mg/dL
Mean serum total cholesterol (apo e−/− mice [2]; regular rodent chow): 551 ± 29 mg/dL
Reduction of total cholesterol levels (apo e−/− mice [2]; [4]): 41%
HDL-C (apo e−/− mice [3]; Western diet, 40 mg/kg/day): 90 ± 4 mg/dL
VLDL-C (apo e−/− mice [3]; Western diet, 40 mg/kg/day): 587 ± 4 mg/dL
HDL-C (apo e−/− mice [3]; rodent chow, 8 mg/kg/day): 50 ± 10 mg/dL
VLDL-C (apo e−/− mice [3]; rodent chow, 8 mg/kg/day): 190 ± 13 mg/dL
Reduction of β-VLDL/LDL-cholesterol levels (apo e−/− mice [3]; [4]): 63%

Reference: patent US6410545B1, “Lipid lowering quinazoline dietary supplement composition” (Parker Hughes Institute, priority 1998, dated 2002)
